Experiment: gradient 5% acetonitrile 3 min, to 50% in 2 min, to 85% in 15 min, held 3 min, 100 µL/min
Settings: column: Zorbax Extend-C18 2.1 x 50 mm; eluents: water / acetonitrile, 0.1% formic acid
Outline: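 Retention time was recorded from adduct peaks, which were picked computationally and each inspected manually. Pure standards ran in mixtures of ~100 molecules on HPLC coupled to a quadrupole time-of-flight mass spectrometer, in positive and negative ionization mode, through a Zorbax Extend-C18 column (2.1 × 50 mm, 1.8 μm) at 100 μL/min. Eluents were water and acetonitrile, each with 0.1% formic acid.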

Row | Compound | RP-LC retention time
1 | CCN1C(=O)COc2ccc(-c3noc(-c4ccccc4F)n3)cc21 | 1070 s
2 | COc1ccc(-c2cnc(NC(=O)[C@H]3CCCCN3S(=O)(=O)c3ccc(C)cc3)s2)cc1 | 1270 s
3 | O=C(NCC1CCOCC1)c1ccc(Br)cc1 | 708 s
4 | COC(=O)c1ccc(Cn2nc(C3CCN(S(C)(=O)=O)CC3)n(C)c2=O)cc1 | 642 s
5 | CCCn1c(C)cnc1C1CCN(S(=O)(=O)c2ccc3c(c2)CCC3)C1 (stereo not given) | 564 s
6 | O=C(c1ccc2c(c1)OCO2)N1CCC2(CC1)CC(O)CCO2 (stereo not given) | 590 s
7 | FC(F)(F)c1nnc2c(Sc3ccccc3)nc3ccc(Cl)cc3n12 | 1190 s
8 | CC(=O)N1CCC2(CC1)CC(CC(=O)NCc1ccc(C)o1)CCO2 (stereo not given) | 625 s
9 | CCN1C(=O)c2cccnc2Sc2cc(CNC(=O)c3ccn(CC)n3)ccc21 | 697 s
10 | CC(C)N1C(=O)c2cccnc2Sc2cc(NC(=O)c3ccc4c(c3)OCO4)ccc21 | 878 s
11 | Cc1oc2c(c(C)nn2-c2ccccc2)c(=O)c1Cl | 954 s
12 | Cc1cc(N2CCCCCC2)n2nc(CN3CCCCC3C)nc2n1 (stereo not given) | 609 s
13 | Cc1nn(C)c(C)c1CCNC(=O)Nc1ccccc1Br | 651 s
14 | Cc1nn(CC(=O)N2CCCCCC2)c(=O)c2c(-n3cccc3)n(-c3ccccc3)nc12 | 978 s
15 | CCN1CCN(c2ncc3c(n2)CCN(Cc2ccc(Br)s2)C3)CC1 | 568 s
16 | CCN(CC)S(=O)(=O)c1cccc(-c2nnc(-c3ccccc3Br)o2)c1 | 1100 s
17 | O=C(Nc1ccc(C(=O)N2CCOCC2)c(N2CCCCCC2)c1)C1CC1 | 743 s
18 | O=C(NCCCN1CCCC1)c1ccc(-c2ccc(NCc3ccccc3)nn2)cc1 | 586 s
19 | Cn1cnc(S(=O)(=O)N2CC(c3nc(CCOCc4ccccc4)no3)C2)c1 | 745 s
20 | Cc1ccc(-c2nc3cnccn3c2NCCC(=O)O)cc1 | 610 s
21 | CCOC(=O)c1c(NC(=O)CSc2n[nH]c(N)n2)sc(C)c1C | 696 s
22 | CCOc1ccc(CNC(=O)C2CCCN(c3cc(=O)n(C)c(=O)n3C)C2)cc1 (stereo not given) | 709 s
23 | CCc1ccc(CN2C[C@@H]3C(=O)N(CCOC)C(=O)[C@@H]3C2)cc1 | 631 s

Row | Compound | RP-LC retention time
24 | COc1ccccc1CNC(=O)C1CCN(c2nnc3c(Cl)cccn23)CC1 | 700 s
25 | COc1cccc(CNC(=O)CN2C(=O)NC(c3ccc(Cl)cc3)C3=C2COC3=O)c1 (stereo not given) | 764 s
26 | CN(C)c1ncncc1N1CCC(C(=O)NCC2CCCO2)CC1 (stereo not given) | 566 s
27 | CCc1ccc(NC(=O)Cn2c(C(C)C)nc3c(c2=O)CCN(Cc2ccccc2)C3)cc1 | 705 s
28 | FC(F)(F)c1cccc(CSc2ccc(-n3ccnc3)nn2)c1 | 671 s
29 | CCOC(=O)Cc1csc2nc(-c3ccccc3)nn12 | 960 s
30 | COc1ccc(S(=O)(=O)NCCc2cn(C)c3ncccc23)cc1 | 696 s
31 | Cc1noc(C)c1Cc1c(C(=O)N2CCC3(CCC3O)CC2)noc1C (stereo not given) | 680 s
32 | Cc1ccc(S(=O)(=O)N2CCC(n3cnnc3-c3ccccc3)CC2)cc1C | 859 s
33 | O=C(O)c1cnc(N2CCCCC2)nc1-c1ccncc1 | 636 s
34 | Cc1ccc(-n2ncc3c(=O)n(Cc4nc(-c5ccc(F)c(Cl)c5)no4)cnc32)cc1 | 1190 s
35 | CCCCNC(=O)C1c2ccccc2C(=O)N(C)C1c1cccs1 (stereo not given) | 775 s
36 | c1cncc(CN2CC(Oc3ccc(-c4noc(-c5ccncc5)n4)cc3)C2)c1 | 813 s
37 | Fc1cccc(-c2nc(-c3ccc4c(c3)ncn4CCN3CCCC3)no2)c1 | 634 s
38 | CCc1ccc(NC(=O)N2CCN(c3cc(C)nc(N4CCOCC4)n3)CC2)cc1 | 668 s
39 | COc1ccc(C2C(C(=O)N3CCOCC3)=C(C)NC3=C2C(=O)CC(C)(C)C3)c(OC)c1 (stereo not given) | 973 s
40 | Cc1ccc(-c2ccc(N3CCCC(C(=O)NCCCN4CCOCC4)C3)nn2)cc1 (stereo not given) | 571 s
41 | CC(C)OCCCNC(=O)C1CCN(S(C)(=O)=O)c2cc(Cl)ccc2O1 (stereo not given) | 838 s
42 | Cc1c2ccncc2cc2c1[nH]c1ccccc12 | 637 s
43 | Cc1cc2nn(CC(=O)Nc3ccc4c(c3)OCCO4)c(=O)n2c(-c2ccc(F)cc2)n1 | 783 s
44 | Cc1ccc(-c2cn3ccn(-c4cccc(F)c4)c(=O)c3n2)c(C)c1 | 900 s
45 | Cc1ccc(-c2csc(NC(=O)c3ccc(C)c(C)c3)n2)cc1 | 1240 s
